Values belong to the compound of their own block, whether it stands above or below them. Activity calls are given as the source filed them. The calls are words filed in the database; no cut-off is given here. Where a SMILES comes first, the peptide text is derived from it. Bridges are numbered along the chain shown (N, C = ends). Triazole bridges read from a SMILES are 1,4-linked. [ ]: non-standard residue; d: D form. 2Nal = N[C@@H](Cc1ccc2ccccc2c1)C(=O)O; Dap(N3) = [N-]=[N+]=NC[C@H](N)C(=O)O; Pra = C#CC[C@H](N)C(=O)O
Experiments:
[1] = target: T1, C-X-C chemokine receptor type 4 (Homo sapiens, UniProt P61073); assay: Binding affinity to CXCR4 (unknown origin) overexpressed in human CCRF-CEM cells assessed as inhibition of ant-CXCR4 PE-antibody binding to receptor preincubated with compound for 45 mins followed by anti-CXCR4 PE-antibody addition and measured after 30 mins by flow cytometry based competitive binding assay; format: cell-based
T1 sequence (P61073 whole entry): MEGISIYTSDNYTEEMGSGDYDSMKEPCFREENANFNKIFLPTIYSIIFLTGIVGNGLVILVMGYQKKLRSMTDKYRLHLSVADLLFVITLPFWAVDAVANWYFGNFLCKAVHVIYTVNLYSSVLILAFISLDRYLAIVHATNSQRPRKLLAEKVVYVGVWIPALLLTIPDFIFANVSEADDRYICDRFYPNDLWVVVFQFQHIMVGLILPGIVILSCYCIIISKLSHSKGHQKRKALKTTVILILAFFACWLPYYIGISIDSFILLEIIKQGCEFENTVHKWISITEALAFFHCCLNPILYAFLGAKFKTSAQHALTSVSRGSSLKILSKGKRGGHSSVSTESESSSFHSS

[2] = target: T1, C-X-C chemokine receptor type 4; assay: Agonist activity at CXCR4 (unknown origin); format: functional
[3] = Stability of compound in PBS at pH 7.4 assessed as parent compound remaining at 10 uM measured immediately in presence of GSH by RP-HPLC analysis; format: physicochemical; conditions: PBS with GSH, read-out: Stability
[4] = Stability of compound in PBS at pH 7.4 assessed as parent compound remaining at 10 uM measured after 1 hrs in presence of GSH by RP-HPLC analysis; format: physicochemical; conditions: PBS with GSH, read-out: Stability
CCRF-CEM [5] = assay: Inhibition of CXCL12-mediated cell migration in human CCRF-CEM cells expressing CXCR4 incubated for 6 hrs by DAPI staining based fluorescence microscopic analysis; format: functional; conditions: dose 0.01-10 µM
[6] = target: Atypical chemokine receptor 3 (Homo sapiens) (UniProt P25106); assay: Binding affinity to CXCR7 (unknown origin) overexpressed in human MCF7 cells upto 10 uM preincubated for 45 mins followed by anti-CXCR7-APC antibody addition and measured after 30 mins by flow cytometric analysis; format: cell-based; conditions: time 75.0 min
Sequence of Atypical chemokine receptor 3 (Homo sapiens) (P25106 whole entry): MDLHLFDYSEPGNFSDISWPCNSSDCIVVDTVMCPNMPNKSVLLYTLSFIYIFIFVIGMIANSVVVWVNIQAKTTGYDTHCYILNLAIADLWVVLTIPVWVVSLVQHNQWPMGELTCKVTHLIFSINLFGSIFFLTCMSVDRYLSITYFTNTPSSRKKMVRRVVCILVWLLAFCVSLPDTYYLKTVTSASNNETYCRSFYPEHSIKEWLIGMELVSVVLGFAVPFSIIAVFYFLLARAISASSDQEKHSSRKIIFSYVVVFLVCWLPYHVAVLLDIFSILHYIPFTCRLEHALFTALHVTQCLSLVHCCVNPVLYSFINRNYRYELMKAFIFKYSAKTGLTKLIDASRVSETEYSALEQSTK

CCRF-CEM [7] = assay: Inhibition of CXCL12-mediated cell migration in human CCRF-CEM cells expressing CXCR4 at 0.01 uM incubated for 6 hrs by DAPI staining based fluorescence microscopic analysis; format: functional
[8] = Stability of compound in PBS at pH 7.4 assessed as parent compound remaining at 10 uM measured after 2 hrs in presence of GSH by RP-HPLC analysis; format: physicochemical; conditions: PBS with GSH, read-out: Stability
[9] = target: T1, C-X-C chemokine receptor type 4; assay: Antagonist activity at GFP-tagged CXCR4 (unknown origin) transfected in CHO cells assessed as inhibition of CXCL12-induced cytoplasmic translocation at 0.1 to 1 uM incubated with compound for 45 mins with subsequent CXCL12 addition and measured at 30 to 90 mins by DAPI staining based fluorescence microscopic analysis; format: cell-based; conditions: filed as antagonist, dose 0.1-1 µM, time 30-90 min
[10] = target: T1, C-X-C chemokine receptor type 4; assay: Antagonist activity at CXCR4 (unknown origin) transfected in human CCRF-CEM cells assessed as inhibition of CXCL12-induced internalization at 0.1 to 1 uM preincubated for 45 mins followed by CXCL12 addition and measured after 30 mins by flow cytometric analysis; format: cell-based; conditions: filed as antagonist, dose 0.1-1 µM, time 75.0 min
[11] = target: T1, C-X-C chemokine receptor type 4; assay: Agonist activity at CXCR4 (unknown origin) transfected in human CCRF-CEM cells assessed as induction of internalization at 0.1 uM incubated for 45 mins by flow cytometric analysis; format: functional, cell-based
[12] = target: T1, C-X-C chemokine receptor type 4; assay: Agonist activity at GFP-tagged CXCR4 (unknown origin) transfected in CHO cells assessed as induction of internalization at 0.1 to 1 uM incubated with compound for 45 mins and measured at 30 to 90 mins by DAPI staining based fluorescence microscopic analysis; format: functional, cell-based; conditions: dose 0.1-1 µM, time 30-90 min
[13] = target: T1, C-X-C chemokine receptor type 4; assay: Displacement of [125I]-CXCL12 from CXCR4 (unknown origin) overexpressed in human CCRF-CEM cells incubated for 1 hrs by gamma-counter; format: cell-based
[14] = Stability of compound in PBS at pH 7.4 assessed as parent compound remaining at 10 uM measured after 8 hrs in presence of GSH by RP-HPLC analysis; format: physicochemical; conditions: PBS with GSH, read-out: Stability
[15] = Stability of compound in PBS at pH 7.4 assessed as parent compound remaining at 10 uM measured after 4 hrs in presence of GSH by RP-HPLC analysis; format: physicochemical; conditions: PBS with GSH, read-out: Stability
CCRF-CEM [16] = assay: Inhibition of CXCL12-mediated cell migration in human CCRF-CEM cells expressing CXCR4 at 0.01 to 10 uM incubated for 6 hrs by DAPI staining based fluorescence microscopic analysis; format: functional; conditions: dose 0.01-10 µM

Compound: CC(=O)N[C@@H](CCCNC(=N)N)C(=O)N[C@@H](C)C(=O)N[C@@H]1CCC(=O)NCCCC[C@@H](C(=O)O)NC(=O)[C@H](Cc2c[nH]cn2)NC(=O)[C@H](Cc2ccc3ccccc3c2)NC(=O)[C@H](CCCNC(=N)N)NC1=O
IC50 [1]: > 0.01 µM

Compound: CC(=O)N[C@@H](CCCNC(=N)N)C(=O)N[C@@H](C)C(=O)N[C@@H]1CNC(=O)C[C@@H](C(=O)O)NC(=O)[C@H](Cc2c[nH]cn2)NC(=O)[C@H](Cc2ccc3ccccc3c2)NC(=O)[C@H](CCCNC(=N)N)NC1=O
IC50 [1]: 3.6 µM

Compound: CC(=O)N[C@@H](CCCNC(=N)N)C(=O)N[C@@H](C)C(=O)N[C@H]1CCC(=O)NCCCC[C@@H](C(=O)O)NC(=O)[C@H](Cc2c[nH]cn2)NC(=O)[C@H](Cc2ccc3ccccc3c2)NC(=O)[C@H](CCCNC(=N)N)NC1=O
IC50 [1]: > 0.01 µM

Compound: CC(=O)N[C@@H](CCCNC(=N)N)C(=O)N[C@@H](C)C(=O)N[C@H]1Cc2cnnn2CC[C@@H](C(=O)O)NC(=O)[C@H](Cc2c[nH]cn2)NC(=O)[C@H](Cc2ccc3ccccc3c2)NC(=O)[C@H](CCCNC(=N)N)NC1=O
IC50 [2]: 0.031 µM

Compound: CC(=O)N[C@@H](CCCNC(=N)N)C(=O)N[C@@H](C)C(=O)N[C@H]1CCC(=O)NCCC[C@@H](C(=O)O)NC(=O)[C@H](Cc2c[nH]cn2)NC(=O)[C@H](Cc2ccc3ccccc3c2)NC(=O)[C@H](CCCNC(=N)N)NC1=O
IC50 [1]: > 0.01 µM

Compound: CC(=O)N[C@@H](CCCNC(=N)N)C(=O)N[C@@H](C)C(=O)N[C@@H]1CCC(=O)NCCC[C@@H](C(=O)O)NC(=O)[C@H](Cc2c[nH]cn2)NC(=O)[C@H](Cc2ccc3ccccc3c2)NC(=O)[C@H](CCCNC(=N)N)NC1=O
IC50 [1]: > 0.01 µM

Compound: CC(=O)N[C@@H](CCCNC(=N)N)C(=O)N[C@@H](C)C(=O)N[C@@H]1CCC(=O)NC[C@@H](C(=O)O)NC(=O)[C@H](Cc2c[nH]cn2)NC(=O)[C@H](Cc2ccc3ccccc3c2)NC(=O)[C@H](CCCNC(=N)N)NC1=O
IC50 [1]: 0.089 µM

Compound: CC(=O)N[C@@H](CCCNC(=N)N)C(=O)N[C@@H](C)C(=O)N[C@@H]1CSSC(C)(C)[C@@H](C(=O)O)NC(=O)[C@H](Cc2cnc[nH]2)NC(=O)[C@H](Cc2ccc3ccccc3c2)NC(=O)[C@H](CCCNC(=N)N)NC1=O
remaining at 0 h, 10 µM [3]: 100%
remaining at 1 h, 10 µM [4]: 88%
IC50 [1]: 0.0015 µM
remaining at 2 h, 10 µM [8]: 79%
IC50 [13]: 0.0152 µM
remaining at 8 h, 10 µM [14]: 52%
remaining at 4 h, 10 µM [15]: 65%

Compound: CC(=O)N[C@@H](CCCNC(=N)N)C(=O)N[C@@H](C)C(=O)N[C@H]1CCC(=O)NC[C@@H](C(=O)O)NC(=O)[C@H](Cc2c[nH]cn2)NC(=O)[C@H](Cc2ccc3ccccc3c2)NC(=O)[C@H](CCCNC(=N)N)NC1=O
IC50 [1]: 0.51 µM

Compound: CC(=O)N[C@@H](CCCNC(=N)N)C(=O)N[C@@H](C)C(=O)N[C@H]1CSSC(C)(C)[C@H](C(=O)O)NC(=O)[C@H](Cc2c[nH]cn2)NC(=O)[C@H](Cc2ccc3ccccc3c2)NC(=O)[C@H](CCCNC(=N)N)NC1=O
Activity [6]: inactive
inhibition (CCRF-CEM [16]): Active
Activity [9]: Active
Activity [10]: Active
Activity [11]: inactive
Activity [12]: inactive

Compound: CC(=O)N[C@@H](CCCNC(=N)N)C(=O)N[C@@H](C)C(=O)N[C@H]1Cn2cc(nn2)C[C@@H](C(=O)O)NC(=O)[C@H](Cc2c[nH]cn2)NC(=O)[C@H](Cc2ccc3ccccc3c2)NC(=O)[C@H](CCCNC(=N)N)NC1=O (Ac-RA[Dap(N3)]R[2Nal]H[Pra]-OH; triazole 3-7)
IC50 [13]: 0.036 µM

The next lines start with results.

IC50 [1]: > 0.01 µM
Compound: CC(=O)N[C@@H](CCCNC(=N)N)C(=O)N[C@@H](C)C(=O)N[C@H]1CC(=O)NCCC[C@@H](C(=O)O)NC(=O)[C@H](Cc2c[nH]cn2)NC(=O)[C@H](Cc2ccc3ccccc3c2)NC(=O)[C@H](CCCNC(=N)N)NC1=O

IC50 [1]: 0.71 µM
Compound: CC(=O)N[C@@H](CCCNC(=N)N)C(=O)N[C@@H](C)C(=O)N[C@@H]1CC(=O)NCC[C@@H](C(=O)O)NC(=O)[C@H](Cc2c[nH]cn2)NC(=O)[C@H](Cc2ccc3ccccc3c2)NC(=O)[C@H](CCCNC(=N)N)NC1=O

IC50 [1]: > 0.01 µM
Compound: CC(=O)N[C@@H](CCCNC(=N)N)C(=O)N[C@@H](C)C(=O)N[C@H]1CCC(=O)NCC[C@@H](C(=O)O)NC(=O)[C@H](Cc2c[nH]cn2)NC(=O)[C@H](Cc2ccc3ccccc3c2)NC(=O)[C@H](CCCNC(=N)N)NC1=O

IC50 [1]: 0.143 µM
Compound: CC(=O)N[C@@H](CCCNC(=N)N)C(=O)N[C@@H](C)C(=O)N[C@H]1CNC(=O)C[C@@H](C(=O)O)NC(=O)[C@H](Cc2c[nH]cn2)NC(=O)[C@H](Cc2ccc3ccccc3c2)NC(=O)[C@H](CCCNC(=N)N)NC1=O

IC50 [1]: 0.756 µM
Compound: CC(=O)N[C@@H](CCCNC(=N)N)C(=O)N[C@@H](C)C(=O)N[C@H]1CC(=O)NCC[C@@H](C(=O)O)NC(=O)[C@H](Cc2c[nH]cn2)NC(=O)[C@H](Cc2ccc3ccccc3c2)NC(=O)[C@H](CCCNC(=N)N)NC1=O

IC50 [1]: 2.02 µM
Compound: CC(=O)N[C@@H](CCCNC(=N)N)C(=O)N[C@@H](C)C(=O)N[C@@H]1CC(=O)NCCC[C@@H](C(=O)O)NC(=O)[C@H](Cc2c[nH]cn2)NC(=O)[C@H](Cc2ccc3ccccc3c2)NC(=O)[C@H](CCCNC(=N)N)NC1=O

remaining at 0 h, 10 µM [3]: 100%
remaining at 1 h, 10 µM [4]: 100%
Activity [6]: inactive
IC50 [1]: 0.0078 µM
remaining at 2 h, 10 µM [8]: 100%
Activity [9]: Active
Activity [10]: Active
Activity [11]: inactive
Activity [12]: inactive
IC50 [13]: 0.0039 µM
remaining at 8 h, 10 µM [14]: 100%
remaining at 4 h, 10 µM [15]: 100%
Compound: CC(=O)N[C@@H](CCCNC(=N)N)C(=O)N[C@@H](C)C(=O)N[C@H]1CNC(=O)CC[C@@H](C(=O)O)NC(=O)[C@H](Cc2c[nH]cn2)NC(=O)[C@H](Cc2ccc3ccccc3c2)NC(=O)[C@H](CCCNC(=N)N)NC1=O
inhibition (CCRF-CEM [5]): Dose-Dependent Effect
inhibition (CCRF-CEM [7]): Active

IC50 [1]: 0.81 µM
Compound: CC(=O)N[C@@H](CCCNC(=N)N)C(=O)N[C@@H](C)C(=O)N[C@@H]1CNC(=O)CC[C@@H](C(=O)O)NC(=O)[C@H](Cc2c[nH]cn2)NC(=O)[C@H](Cc2ccc3ccccc3c2)NC(=O)[C@H](CCCNC(=N)N)NC1=O

IC50 [1]: > 0.01 µM
Compound: CC(=O)N[C@@H](CCCNC(=N)N)C(=O)N[C@@H](C)C(=O)N[C@H]1CC(=O)NCCCC[C@@H](C(=O)O)NC(=O)[C@H](Cc2c[nH]cn2)NC(=O)[C@H](Cc2ccc3ccccc3c2)NC(=O)[C@H](CCCNC(=N)N)NC1=O

IC50 [1]: 3.15 µM
Compound: CC(=O)N[C@@H](CCCNC(=N)N)C(=O)N[C@@H](C)C(=O)N[C@@H]1CC(=O)NC[C@@H](C(=O)O)NC(=O)[C@H](Cc2c[nH]cn2)NC(=O)[C@H](Cc2ccc3ccccc3c2)NC(=O)[C@H](CCCNC(=N)N)NC1=O

IC50 [1]: > 0.01 µM
Compound: CC(=O)N[C@@H](CCCNC(=N)N)C(=O)N[C@@H](C)C(=O)N[C@H]1CC(=O)NC[C@@H](C(=O)O)NC(=O)[C@H](Cc2c[nH]cn2)NC(=O)[C@H](Cc2ccc3ccccc3c2)NC(=O)[C@H](CCCNC(=N)N)NC1=O

IC50 [1]: 0.238 µM
Compound: CC(=O)N[C@@H](CCCNC(=N)N)C(=O)N[C@@H](C)C(=O)N[C@@H]1CCC(=O)NCC[C@@H](C(=O)O)NC(=O)[C@H](Cc2c[nH]cn2)NC(=O)[C@H](Cc2ccc3ccccc3c2)NC(=O)[C@H](CCCNC(=N)N)NC1=O

IC50 [1]: 2.57 µM
Compound: CC(=O)N[C@@H](CCCNC(=N)N)C(=O)N[C@@H](C)C(=O)N[C@@H]1CC(=O)NCCCC[C@@H](C(=O)O)NC(=O)[C@H](Cc2c[nH]cn2)NC(=O)[C@H](Cc2ccc3ccccc3c2)NC(=O)[C@H](CCCNC(=N)N)NC1=O

Reference: ChEMBL document CHEMBL6127092, “Comprehensive structural investigation of a potent and selective CXCR4 antagonist via crosslink modification” (Eur J Med Chem, 2024)
